Laboratory results as given in patent US20110251379A1, “COMPOUNDS USEFUL FOR TREATING NEURODEGENERATIVE DISORDERS” (Satori Pharmaceuticals, Inc., priority 2010, published 2011).

System: amyloid-beta (1-42) peptide
Assay: ELISA assay of amyloid-beta (1-42) in conditioned media of 2B7 cells
Assay type: cell-based
Conditions: for IC50: Aβ-42, 2B7 cells, 5 hours, read-out: IC50 range; for inhibition at 100 µM / inhibition at 20 µM: read-out: % Inhibition (range)
Protocol: Compounds of the present invention, and extracts comprising said compounds, may be assayed as inhibitors of amyloid-beta (1-42) peptide in vitro or in vivo. Such assay methods are described in detail in U.S. Pat. No. 6,649,196, the entirety of which is hereby incorporated herein by reference.
In certain embodiments, provided compounds of the present invention, and extracts comprising said compounds, were assayed as inhibitors of amyloid-beta (1-42) peptide in vitro using an ELISA assay.
Capture Plate Prep: • 6E10 was diluted to 5.0 ug/mL in 100 mM NaHCO3 pH 8.2 (10 ug aliquot per 2 mL buffer); • 100 uL capture antibody solution was added to wells of 96 well plate; • Incubated overnight at 4° C. sealed; • Aspirated off capture antibody; and • Blocked with 250 uL of Blocking Buffer for 2-4 hours at rt sealed.
Conditioned Media: • Cultured 2B7 cells in 96 well plate with 250 uL of media per well until confluent; • Prepared serial dilution of compounds in DMSO at 100× the final desired concentration; • Washed wells with 2B7 cells lx with 250 uL of media; • Diluted DMSO stocks 1:100 into media and mix; and • Added 250 μL of media containing compounds (1% DMSO) to wells with 2B7 cells for 5 hours at 37° C.
Elisa Sample Prep: • Diluted conditioned media 1:2 into blocking buffer; • NOTE: If assaying for A-Beta 1-40 or total A-Beta, then diluted above sample 1:10 with a 50/50 mixture of non-conditioned media containing 1% DMSO and blocking buffer.
Standard Curve Sample Prep: • Diluted appropriate A-Beta peptide stock (stored in 1% NH4OH) to 200 μg/mL in blocking buffer; • Prepared a 1:2 serial dilution from the 200 μg/mL sample (150 μL into 150 μL blocking buffer); and • Added equal volume of standard curve samples to non-conditioned media with 1% DMSO.
Overnight Sample Incubation: • Aspirated blocking buffer from blocked plate; • Added 100 μL of samples to wells of plate (samples will be 50% media with 1% DMSO and 50% blocking buffer; and • Incubated overnight at 4° C. sealed.
Addition of Detection Antibody: • Aspirated off samples, wash 2× with 250 μL blocking buffer; and • Added 100 μL detection antibody labeled with HRP at 0.25 ug/mL in blocking buffer for 4 hours at room temperature sealed.
Final Wash and Readout: • Aspirated wells, wash 5× with 250 μL of PBS-T (2 minutes each wash at 30 RPM); • Added 100 μL TMB for 20 minutes; • Added 100 μL of 1M H3PO4; and • Read at 450 nm.
Coating Buffer (100 mM NaHCO3 pH 8.2)
PBS-T (PBS with 0.05% Tween-20)
Blocking Buffer (1% BSA in PBS-T)

## CC1CC(CN(CC(C)(C)O)S(C)(=O)=O)OC2C1C1(C)CCC34CC35CCC(O)C(C)(C)C5CCC4C1(C)C2O (stereo not drawn)
  IC50: > 10 µM

## CC(=O)N(Cc1ccccc1)C(C(=O)NCc1ccccc1)C1CC(C)C2C(O1)C(O)C1(C)C3CCC4C(C)(C)C(O)CCC45CC35CCC21C (stereo not drawn)
  IC50: > 10 µM

## CC1CC(c2nnco2)OC2C1C1(C)CCC34CC35CCC(O)C(C)(C)C5CCC4C1(C)C2O (stereo not drawn)
  IC50: > 10 µM

## CC1CC(CN2CCCCC2=O)OC2C1C1(C)CCC34CC35CCC(O)C(C)(C)C5CCC4C1(C)C2O (stereo not drawn)
  IC50: > 10 µM

## CC(=O)N(C)C(C(=O)NCc1ccccc1)C1CC(C)C2C(O1)C(O)C1(C)C3CCC4C(C)(C)C(O)CCC45CC35CCC21C (stereo not drawn)
  IC50: > 10 µM

## CCC(=O)O[C@@H]([C@H]1C[C@@H](C)C2C(O1)C(N)[C@@]1(C)[C@@H]3CC[C@H]4C(C)(C)[C@@H](O)CC[C@@]45C[C@@]35CC[C@]21C)C(C)(C)O (stereo partly drawn)
Aβ-42, 100 umol/L
  inhibition at 100 µM: 25 to 75%

## CC(=O)O[C@@H]([C@H]1C[C@@H](C)C2=C(O1)[C@H](O[Si](C)(C)C(C)(C)C)[C@@]1(C)[C@@H]3CC[C@H]4C(C)(C)[C@H](N)CC[C@@]45C[C@@]35CC[C@]21C)C(C)(C)O
Aβ-42, 100 umol/L
  inhibition at 100 µM: < 25%

## C[C@@H]1C[C@H](C=O)OC2C1[C@@]1(C)CC[C@@]34C[C@@]35CC[C@H](O)C(C)(C)[C@@H]5CC[C@H]4[C@]1(C)[C@H]2O (stereo partly drawn)
Aβ-42, 100 umol/L
  inhibition at 100 µM: < 25%

## C[C@@H]1C[C@H](CO)OC2C1[C@@]1(C)CC[C@@]34C[C@@]35CC[C@H](O)C(C)(C)[C@@H]5CC[C@H]4[C@]1(C)[C@H]2O (stereo partly drawn)
Aβ-42, 100 umol/L
  inhibition at 100 µM: < 25%

## C[C@@H]1C[C@H](C(=O)C(C)(C)O)OC2C1[C@@]1(C)CC[C@@]34C[C@@]35CC[C@H](O)C(C)(C)[C@@H]5CC[C@H]4[C@]1(C)[C@H]2O (stereo partly drawn)
Aβ-42, 20 umol/L
  inhibition at 20 µM: < 25%

## C[C@@H]1C[C@H]([C@H](OC(N)=O)C(C)(C)O)OC2C1[C@@]1(C)CC[C@@]34C[C@@]35CC[C@H](O)C(C)(C)[C@@H]5CC[C@H]4[C@]1(C)[C@H]2O (stereo partly drawn)
Aβ-42, 20 umol/L
  inhibition at 20 µM: 25 to 75%

## CC(=O)/C=C/[C@H]1C[C@@H](C)C2C(O1)[C@H](O)[C@@]1(C)[C@@H]3CC[C@H]4C(C)(C)[C@@H](O)CC[C@@]45C[C@@]35CC[C@]21C (stereo partly drawn)
Aβ-42, 20 umol/L
  inhibition at 20 µM: < 25%

## CC(=O)CCC1C[C@@H](C)C2C(O1)[C@H](O)[C@@]1(C)[C@@H]3CC[C@H]4C(C)(C)[C@@H](O)CC[C@@]45C[C@@]35CC[C@]21C (stereo partly drawn)
Aβ-42, 20 umol/L
  inhibition at 20 µM: < 25%

## CC(=O)O[C@@H]([C@H]1C[C@@H](C)C2C(O1)[C@H](O)[C@@]1(C)[C@@H]3CC[C@H]4C(C)(C)C(=O)CC[C@@]45C[C@@]35CC[C@]21C)C(C)(C)O (stereo partly drawn)
Aβ-42, 100 umol/L
  inhibition at 100 µM: 25 to 75%

## CC(=O)O[C@@H]([C@H]1C[C@@H](C)C2C(O1)[C@H](O)[C@@]1(C)[C@@H]3CC[C@H]4C(C)(C)[C@H](N)CC[C@@]45C[C@@]35CC[C@]21C)C(C)(C)O (stereo partly drawn)
Aβ-42, 100 umol/L
  inhibition at 100 µM: 25 to 75%

## CC(=O)O[C@@H]([C@H]1C[C@@H](C)C2C(O1)[C@H](O)[C@@]1(C)[C@@H]3CC[C@H]4C(C)(C)[C@H](N5CCOCC5)CC[C@@]45C[C@@]35CC[C@]21C)C(C)(C)O (stereo partly drawn)
Aβ-42, 100 umol/L
  inhibition at 100 µM: < 25%

## C[C@@H]1C[C@H]([C@@H]2OC(=O)OC2(C)C)OC2C1[C@@]1(C)CC[C@@]34C[C@@]35CC[C@H](O)C(C)(C)[C@@H]5CC[C@H]4[C@]1(C)[C@H]2O (stereo partly drawn)
Aβ-42, 100 umol/L
  inhibition at 100 µM: 25 to 75%

## CC(=O)O[C@@H]([C@H]1C[C@@H](C)C2C(O1)[C@H](OC(N)=O)[C@@]1(C)[C@@H]3CC[C@H]4C(C)(C)[C@@H](OC(N)=O)CC[C@@]45C[C@@]35CC[C@]21C)C(C)(C)O (stereo partly drawn)
Aβ-42, 20 umol/L
  inhibition at 20 µM: < 25%

## CC1CC(C(O)C(C)(C)O)OC2C1C1(C)CCC34CC35CCC(OC3CN(CCCC(=O)O)CCO3)C(C)(C)C5CCC4C1(C)C2O (stereo not drawn)
Aβ-42, 20 umol/L
  % Inhibition (range): E E (% inhibition of 25-75%)
Aβ-42, 100 umol/L
  % Inhibition (range): E E (% inhibition of 25-75%)
  IC50: > 10 µM

## CC1CC(C(O)C(C)(C)O)OC2C1C1(C)CCC34CC35CCC(OC3CN(CCC(=O)O)CCO3)C(C)(C)C5CCC4C1(C)C2O (stereo not drawn)
Aβ-42, 20 umol/L
  % Inhibition (range): E E (% inhibition of 25-75%)
Aβ-42, 100 umol/L
  % Inhibition (range): E E (% inhibition of 25-75%)

## CC1CC(C(O)C(C)(C)O)OC2C1C1(C)CCC34CC35CCC(OC3CN(C(=O)C6CCOCC6)CCO3)C(C)(C)C5CCC4C1(C)C2O (stereo not drawn)
Aβ-42, 20 umol/L
  % Inhibition (range): E (% inhibition of 25-75%)

## CC1CC(C(O)C(C)(C)O)OC2C1C1(C)CCC34CC35CCC(OC3CN(C(=O)Cc6cccnc6)CCO3)C(C)(C)C5CCC4C1(C)C2O (stereo not drawn)
Aβ-42, 100 umol/L
  % Inhibition (range): F (% inhibition of <25%)

## CC1CC(C(O)C(C)(C)O)OC2C1C1(C)CCC34CC35CCC(OC3CN(C(=O)Cc6ccccn6)CCO3)C(C)(C)C5CCC4C1(C)C2O (stereo not drawn)
Aβ-42, 100 umol/L
  % Inhibition (range): F (% inhibition of <25%)

## CC1CC(C(O)C(C)(C)O)OC2C1C1(C)CCC34CC35CCC(OC3CN(C(=O)Cc6ccncc6)CCO3)C(C)(C)C5CCC4C1(C)C2O (stereo not drawn)
Aβ-42, 100 umol/L
  % Inhibition (range): F (% inhibition of <25%)

## CC1CC(C(O)C(C)(C)O)OC2C1C1(C)CCC34CC35CCC(OC3CN(C(=O)c6cccnc6)CCO3)C(C)(C)C5CCC4C1(C)C2O (stereo not drawn)
Aβ-42, 100 umol/L
  % Inhibition (range): F (% inhibition of <25%)

## CC1CC(C(O)C(C)(C)O)OC2C1C1(C)CCC34CC35CCC(OC3CN(C(=O)c6ccncc6)CCO3)C(C)(C)C5CCC4C1(C)C2O (stereo not drawn)
Aβ-42, 20 umol/L
  % Inhibition (range): E E (% inhibition of 25-75%)
Aβ-42, 100 umol/L
  % Inhibition (range): E E (% inhibition of 25-75%)

## CC1CC(C(O)C(C)(C)O)OC2C1C1(C)CCC34CC35CCC(OC3CN(C(=O)CN6CCOCC6)CCO3)C(C)(C)C5CCC4C1(C)C2O (stereo not drawn)
Aβ-42, 100 umol/L
  % Inhibition (range): F (% inhibition of <25%)

## CC1CC(C(O)C(C)(C)O)OC2C1C1(C)CCC34CC35CCC(OC3CN(C(=O)CC6CCOCC6)CCO3)C(C)(C)C5CCC4C1(C)C2O (stereo not drawn)
Aβ-42, 20 umol/L
  % Inhibition (range): F (% inhibition of <25%)

## CC1CC(C(O)C(C)(C)O)OC2C1C1(C)CCC34CC35CCC(OC3CN(C(=O)Cc6ccc(F)cc6)CCO3)C(C)(C)C5CCC4C1(C)C2O (stereo not drawn)
Aβ-42, 20 umol/L
  % Inhibition (range): E E (% inhibition of 25-75%)
Aβ-42, 100 umol/L
  % Inhibition (range): E E (% inhibition of 25-75%)

## CC1CC(C(O)C(C)(C)O)OC2C1C1(C)CCC34CC35CCC(OC3CN(C(=O)C6CCCCC6)CCO3)C(C)(C)C5CCC4C1(C)C2O (stereo not drawn)
Aβ-42, 20 umol/L
  % Inhibition (range): E (% inhibition of 25-75%)

## CC1CC(C(O)C(C)(C)O)OC2C1C1(C)CCC34CC35CCC(OC3CN(C(=O)C6CC6)CCO3)C(C)(C)C5CCC4C1(C)C2O (stereo not drawn)
Aβ-42, 20 umol/L
  % Inhibition (range): E (% inhibition of 25-75%)

## CC1CC(C(O)C(C)(C)O)OC2C1C1(C)CCC34CC35CCC(OC3CN(C(=O)Cc6cc(F)cc(F)c6)CCO3)C(C)(C)C5CCC4C1(C)C2O (stereo not drawn)
Aβ-42, 20 umol/L
  % Inhibition (range): E E (% inhibition of 25-75%)
Aβ-42, 100 umol/L
  % Inhibition (range): E E (% inhibition of 25-75%)

## CC1CC(C(O)C(C)(C)O)OC2C1C1(C)CCC34CC35CCC(OC3CN(C(=O)CC6CCC6)CCO3)C(C)(C)C5CCC4C1(C)C2O (stereo not drawn)
Aβ-42, 20 umol/L
  % Inhibition (range): E (% inhibition of 25-75%)
Aβ-42, 100 umol/L
  % Inhibition (range): F (% inhibition of <25%)

## CC1CC(C(O)C(C)(C)O)OC2C1C1(C)CCC34CC35CCC(OC3CN(C6CCOCC6)CCO3)C(C)(C)C5CCC4C1(C)C2O (stereo not drawn)
Aβ-42, 20 umol/L
  % Inhibition (range): E (% inhibition of 25-75%)

## CC(=O)N1CC(N2CCOC(OC3CCC45CC46CCC4(C)C7C(C)CC(C(O)C(C)(C)O)OC7C(O)C4(C)C6CCC5C3(C)C)C2)C1 (stereo not drawn)
Aβ-42, 20 umol/L
  % Inhibition (range): F F (% inhibition of <25%)
Aβ-42, 100 umol/L
  % Inhibition (range): F F (% inhibition of <25%)

## CC1CC(C(O)C(C)(C)O)OC2C1C1(C)CCC34CC35CCC(OC3CN(C6CC6)CCO3)C(C)(C)C5CCC4C1(C)C2O (stereo not drawn)
Aβ-42, 100 umol/L
  % Inhibition (range): F (% inhibition of <25%)

## CC1CC(C(O)C(C)(C)O)OC2C1C1(C)CCC34CC35CCC(OC3CN(CCF)CCO3)C(C)(C)C5CCC4C1(C)C2O (stereo not drawn)
Aβ-42, 100 umol/L
  % Inhibition (range): F (% inhibition of <25%)
